In US10821093B2, “Antibacterial microelement chelates and the use thereof in animal feeds” (priority 2012, dated 2020):
Where two headings read alike, the source gives them in different places.

Key:
Escherichia coli = experiment: MIC, liquid culture dilution (single chelates and cross-dilution combinations); assay type: cell-based
Micrococcus luteus = experiment: MIC, liquid culture dilution; assay type: cell-based
Clostridium perfringens = assay type: cell-based
LACTIC ACID PRODUCERS = experiment: MIC, liquid culture dilution; assay type: cell-based
LSE = experiment: Minimal lethal concentration (CID); assay type: cell-based, Saccharomyces cerevisiae
Description: (§1) It is the concentration of the active ingredient that causes the complete death of the microbes. Under sterile conditions within a laminar box, a dilution series was prepared from the liquid culture mediums that were incubated for 24 hours, then from the dilution series 100 μl each was placed onto agar dishes and spread with a sterile glass rod. The incubation period is 24 hours under conditions favorable for the growth of the microbe, then the number of colonies on the agar dishes are counted.
(§2) In the case where no colonies are visible on the culture medium after the incubation, it indicates the microbe killing effect (CID) of the trace element chelate. The number of countable colonies grown on the agar dishes gives the actual MIC value of the given trace element chelate.

Streptococcus agalactiae = experiment: MIC, liquid culture dilution; assay type: cell-based
[1] = system: Brachyspira hyodysenteriae; experiment: MIC (single chelates and combinations)
Salmonella = experiment: Minimal lethal concentration (CID); assay type: cell-based
Description: as §1, §2

Lactococcus = experiment: Minimal lethal concentration (CID); assay type: cell-based
Description: as §1, §2

Staphylococcus aureus = experiment: MIC, liquid culture dilution; assay type: cell-based
S. tiphy = assay type: cell-based
Salmonella enterica = experiment: MIC, liquid culture dilution (single chelates and cross-dilution combinations); assay type: cell-based, Salmonella enterica subp. Enterica serovar enteritidis
Saccharomyces cerevisiae = experiment: MIC, liquid culture dilution; assay type: cell-based

NCC(=O)O.O=S(=O)([O-])[O-].[Zn+2] [Zinc mono-glycinate, zinc mono-glycinate chelate]
Minimal inhibitory concentration (MIC) (Escherichia coli): 100 ppm
Minimal inhibitory concentration (MIC) (Micrococcus luteus): 60 ppm
Minimal inhibitory concentration (MIC) (Clostridium perfringens): 210 ppm
Minimal inhibitory concentration (MIC) (LACTIC ACID PRODUCERS): 800 ppm
CID concentration (LSE): 800 ppm
Minimal inhibitory concentration (MIC) (Streptococcus agalactiae): 80 ppm
Minimal inhibitory concentration (MIC) (Streptococcus agalactiae; listed as Zn mono-glycinate): 40 ppm
Minimal inhibitory concentration (MIC) [1]: >4000 ppm
CID concentration (Salmonella; Salmonella): 3000 ppm
CID value relative to MIC value (Salmonella; Salmonella strains): 30 fold
CID concentration (Lactococcus): 800 ppm
Minimal inhibitory concentration (MIC) (Staphylococcus aureus): 40 ppm
Minimal inhibitory concentration (MIC) (Staphylococcus aureus; listed as Zn mono-glycinate): 20 ppm
CID concentration (S. tiphy): 3000 ppm
Minimal inhibitory concentration (MIC) (Salmonella enterica): 100 ppm
Minimal inhibitory concentration (MIC) (Saccharomyces cerevisiae): 800 ppm
